Measurements: patent US4226875A, “Novel spiro-oxazolidinediones” (Pfizer Inc., priority 1979, dated 1980)

Experiments:
[1] = tested on: sorbitol accumulation in the sciatic nerve of streptozotocinized (i.e., diabetic) rats; assay: sorbitol accumulation in the sciatic nerve of streptozotocinized (diabetic) rats; type: in vivo; conditions: oral; 50 mg/kg body weight; preliminary tests
Description: (§1) The activity of the compounds of the present invention as agents for the control of chronic diabetic complications may be determined by a number of standard biological or pharmacological tests. Suitable tests include (1) measuring their ability to inhibit the enzyme activity of isolated aldose reductase; (2) measuring their ability to reduce or inhibit sorbitol accumulation in the sciatic nerve of acutely streptozotocinized (i.e. diabetic) rats; (3) measuring their ability to reverse already elevated sorbitol levels in the sciatic nerve and lens of chronic streptozotocin-induced diabetic rats; (4) measuring their ability to prevent or inhibit galactitol formation in the lens of acutely galactosemic rats; and (5) measuring their ability to delay cataract formation and reduce the severity of lens opacities in chronic galactosemic rats. Suitable experimental procedures are described in U.S. Pat. No. 3,821,383 and the references cited therein.
(§2) The substrate employed was partially purified aldose reductase enzyme obtained from calf lens. […] Thus, for example, the compounds may be tested for their ability to reduce or inhibit sorbitol accumulation in the sciatic nerve of streptozotocinized (i.e., diabetic) rats by the procedure essentially described in U.S. Pat. No. 3,821,383. The amount of sorbitol accumulation in the sciatic nerves is measured 27 hours after induction of diabetes. […]

[2] = tested on: partially purified aldose reductase enzyme obtained from calf lens; assay: inhibition of aldose reductase enzyme activity (procedure of US 3,821,383 / Hayman et al.); type: biochemical; conditions: compound concentration 10^-4 M
Description: as §1, §2

| percent inhibition of enzyme activity [2] [%] | SMILES | activity in reducing or inhibiting sorbitol accumulation in the sciatic nerve [1] |
| --- | --- | --- |
| 75 | O=C1NC(=O)C2(CCCc3ccccc32)O1 (stereo not drawn) [1',2',3',4'-tetrahydro-spiro-[oxazolididine(5,1')naphthalene]-2,4-dione] | no significant activity |
| 81 | O=C1NC(=O)C2(CCc3ccccc32)O1 (stereo not drawn) [Spiro-[indane(1,5')oxazolidine]-2',4'-dione] | – |
